Results as given in ChEMBL document CHEMBL1201862, “PubChem BioAssay data set” (2004).
Where “and” joins values, the source holds several entries; their conditions need not be identical. Equal entries are not always repeated.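 Method: 48-hour compound exposure of cells in 96-well plates, five concentrations, linear interpolation of endpoints. At the GI50, growth is halved.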 Calls of active or inactive are those of the source. Rule as the data show it: active = GI50 up to about 1.1 µM and inactive = higher. Where a SMILES comes first, the peptide text is derived from it. [ ]: non-standard residue; d: D form. The star is where a group is joined. NMeF = CN[C@@H](Cc1ccccc1)C(=O)O; NMeV = CN[C@H](C(=O)O)C(C)C; Boc = CC(C)(C)OC(=O)*; OBn = c1ccc(CO*)cc1

Assays:
Test in all cases: inhibition of tumour cell growth, NCI panel, 48 h
786-0 = system: 786-0
A549 = system: A549
ACHN = system: ACHN
EKVX = system: EKVX
HCC 2998 = system: HCC 2998
K562 = system: K562
M14 = system: M14
Malme-3M = system: Malme-3M
NCI-H23 = system: NCI-H23
RPMI-8226 = system: RPMI-8226
RXF 393 = system: RXF 393
SK-MEL-28 = system: SK-MEL-28
SK-MEL-2 = system: SK-MEL-2
SK-MEL-5 = system: SK-MEL-5
SK-OV-3 = system: SK-OV-3
SNB-19 = system: SNB-19
SR = system: SR
T47D = system: T47D
U-251 = system: U-251
SNB-75 = system: SNB-75

SMILES | GI50 (786-0) | GI50 (A549) | GI50 (ACHN) | GI50 (EKVX) | GI50 (HCC 2998) | GI50 (K562) | GI50 (M14) | GI50 (Malme-3M) | GI50 (NCI-H23) | GI50 (RPMI-8226) | GI50 (RXF 393) | GI50 (SK-MEL-28) | GI50 (SK-MEL-2) | GI50 (SK-MEL-5) | GI50 (SK-OV-3) | GI50 (SNB-19) | GI50 (SR) | GI50 (T47D) | GI50 (U-251) | GI50 (SNB-75)
CCC(C)C1=C(O)[N+]2([O-])Oc3ccc(-c4c(O)c(O)c(-c5ccc(OC(C)=O)cc5)c(OC(C)=O)c4OC(C)=O)cc3OC2(C(C)CC)C(=O)N1O (stereo unspecified) | > 50 µM (inactive) | > 50 µM (inactive) and 29.2 µM (inactive) | > 50 µM (inactive) | > 50 µM (inactive) | 11.9 µM (inactive) | 28.8 µM (inactive) and 15.4 µM (inactive) | > 50 µM (inactive) | 34.6 µM (inactive) and 45.2 µM (inactive) | > 50 µM (inactive) | > 50 µM (inactive) and 33.8 µM (inactive) | > 50 µM (inactive) | 46.1 µM (inactive) | > 50 µM (inactive) | > 50 µM (inactive) and 29.2 µM (inactive) | > 50 µM (inactive) | > 50 µM (inactive) | 22.3 µM (inactive) and 13.9 µM (inactive) | 42.7 µM (inactive) | > 50 µM (inactive) | –
C=C(C)C#CC(O)(C(=O)OC1CCN(C)CC1)C(C)C (stereo unspecified) | > 100 µM (inactive) | > 100 µM (inactive) | > 100 µM (inactive) | > 100 µM (inactive) | > 100 µM (inactive) | > 100 µM (inactive) | > 100 µM (inactive) | > 100 µM (inactive) | > 100 µM (inactive) | > 100 µM (inactive) | > 100 µM (inactive) | > 100 µM (inactive) | – | > 100 µM (inactive) | > 100 µM (inactive) | > 100 µM (inactive) | > 100 µM (inactive) | > 100 µM (inactive) | > 100 µM (inactive) | > 100 µM (inactive)
NC(=S)N/N=C\c1nccc2ccccc12 | 0.29 µM (active) | 0.413 µM (active) | 0.0501 µM (active) | 0.302 µM (active) | 3.04 µM (inactive) | 0.731 µM (active) | 0.383 µM (active) | 1.73 µM (inactive) | 0.314 µM (active) | 0.267 µM (active) | 0.357 µM (active) | 0.36 µM (active) | 6 µM (inactive) | 0.143 µM (active) | 0.2 µM (active) | 0.531 µM (active) | 0.126 µM (active) | 2.69 µM (inactive) | 0.281 µM (active) | –
CC(=O)N1N=C(c2c(O)ccc3ccccc23)CC1c1ccc(Cl)cc1 (stereo unspecified) | 27.1 µM (inactive) | 23.6 µM (inactive) | 25.5 µM (inactive) | – | 17.7 µM (inactive) | 13.1 µM (inactive) | 14.2 µM (inactive) | 17.5 µM (inactive) | 15.1 µM (inactive) | 10.5 µM (inactive) | 17.1 µM (inactive) | 27.4 µM (inactive) | 17.5 µM (inactive) | 21 µM (inactive) | 28.4 µM (inactive) | – | 6.35 µM (inactive) | 37.5 µM (inactive) | 21.9 µM (inactive) | 22 µM (inactive)
O=C1C/C(=C\O)C(=O)c2ccccc2N1 | > 100 µM (inactive) | > 100 µM (inactive) | > 100 µM (inactive) | > 100 µM (inactive) | > 100 µM (inactive) | > 100 µM (inactive) | > 100 µM (inactive) | > 100 µM (inactive) | > 100 µM (inactive) | – | > 100 µM (inactive) | > 100 µM (inactive) | > 100 µM (inactive) | > 100 µM (inactive) | > 100 µM (inactive) | > 100 µM (inactive) | > 100 µM (inactive) | 61.8 µM (inactive) | > 100 µM (inactive) | –
C/C(=N\NC(=S)N1CCCCCC1)c1cccc2cccnc12 | 2.01 µM (inactive) | 1.13 µM (inactive) | 0.375 µM (active) | 1.29 µM (inactive) | 2.76 µM (inactive) | 0.131 µM (active) | 1.55 µM (inactive) | 3.17 µM (inactive) | 1.32 µM (inactive) | 0.109 µM (active) | > 26.4 µM (inactive) | 1.77 µM (inactive) | 19.5 µM (inactive) | – | 3.77 µM (inactive) | 1.76 µM (inactive) | < 0.01 µM (active) | 0.966 µM (active) | 0.839 µM (active) | 23 µM (inactive)
O=C(NN1C(=O)C(Cl)C1c1ccc(Cl)cc1)c1c(Cl)c(Cl)c(Cl)c(Cl)c1-c1nc2ccccc2[nH]1 (stereo unspecified) | 16.5 µM (inactive) | 26.4 µM (inactive) | 18.9 µM (inactive) | 20.7 µM (inactive) | 15.1 µM (inactive) | 20.1 µM (inactive) | 20.8 µM (inactive) | 21.1 µM (inactive) | 21.5 µM (inactive) | – | 2.23 µM (inactive) | 16.9 µM (inactive) | 21.8 µM (inactive) | 26.4 µM (inactive) | 42.7 µM (inactive) | 36.1 µM (inactive) | 16.6 µM (inactive) | < 0.01 µM (active) | – | 19.2 µM (inactive)
O=C1C(Cl)C2(CC(/C=C/c3ccccc3O)=NN2c2cccc(S(=O)(=O)O)c2)N1c1nc2ccccc2s1 (stereo unspecified) | 15.6 µM (inactive) | 23.7 µM (inactive) | 20.2 µM (inactive) | 18.6 µM (inactive) | 14.5 µM (inactive) | 20.2 µM (inactive) | 18.3 µM (inactive) | 13.8 µM (inactive) | 15.6 µM (inactive) | 12.1 µM (inactive) | 37.6 µM (inactive) | 24.2 µM (inactive) | 16.8 µM (inactive) | 12.1 µM (inactive) | – | 30.8 µM (inactive) | 15.3 µM (inactive) | 17.4 µM (inactive) | 16.7 µM (inactive) | 38.8 µM (inactive)
COc1ccc(C(=C2C(=O)OC(=O)C2=C(C)C)c2ccc(OC)cc2)cc1 | > 100 µM (inactive) | 67.6 µM (inactive) | > 100 µM (inactive) | 27 µM (inactive) | > 100 µM (inactive) | – | 85.1 µM (inactive) | 92 µM (inactive) | > 100 µM (inactive) | 28.8 µM (inactive) | > 100 µM (inactive) | > 100 µM (inactive) | 53.8 µM (inactive) | > 100 µM (inactive) | > 100 µM (inactive) | 57.4 µM (inactive) | 38.5 µM (inactive) | > 100 µM (inactive) | 33.4 µM (inactive) | > 100 µM (inactive)
CN(C)c1n/c(=N/Cc2ccccn2)ss1 | > 4.16 µM (inactive) | > 10 µM (inactive) | > 10 µM (inactive) | > 10 µM (inactive) | > 10 µM (inactive) | 2.51 µM (inactive) | > 8.89 µM (inactive) | > 4.61 µM (inactive) | > 10 µM (inactive) | 4.48 µM (inactive) | > 8.79 µM (inactive) | > 10 µM (inactive) | – | > 10 µM (inactive) | > 10 µM (inactive) | > 10 µM (inactive) | 1.93 µM (inactive) | > 10 µM (inactive) | > 10 µM (inactive) | > 10 µM (inactive)
CC1=NN(c2nc(N)nc(/C(C#N)=C/c3cccn3-c3cc(Cl)cc(Cl)c3)n2)C(C)(C)C1 | > 100 µM (inactive) | > 100 µM (inactive) | > 100 µM (inactive) | > 100 µM (inactive) | > 100 µM (inactive) | – | > 100 µM (inactive) | > 100 µM (inactive) | > 100 µM (inactive) | > 100 µM (inactive) | > 100 µM (inactive) | > 100 µM (inactive) | > 100 µM (inactive) | > 100 µM (inactive) | > 100 µM (inactive) | 40.6 µM (inactive) | 1.42 µM (inactive) | > 100 µM (inactive) | 7.82 µM (inactive) | 17 µM (inactive)
CN(C)c1ccc(/C=C2\CCCCCC2=O)cc1 | 87.1 µM (inactive) | > 100 µM (inactive) | 58.7 µM (inactive) | > 100 µM (inactive) | > 100 µM (inactive) | > 100 µM (inactive) | 79.1 µM (inactive) | > 100 µM (inactive) | – | 94.4 µM (inactive) | > 100 µM (inactive) | > 100 µM (inactive) | > 100 µM (inactive) | 56 µM (inactive) | > 100 µM (inactive) | > 100 µM (inactive) | > 100 µM (inactive) | 38.5 µM (inactive) | – | > 100 µM (inactive)
CN(C)Cc1cc(C(=O)/C=C/c2ccccc2)cc(CN(C)C)c1O | 30.1 µM (inactive) | 23.4 µM (inactive) | 15.8 µM (inactive) | 33.6 µM (inactive) | 21.3 µM (inactive) | 14.2 µM (inactive) | 20.7 µM (inactive) | 22.6 µM (inactive) | 28.1 µM (inactive) | 11.8 µM (inactive) | 16.5 µM (inactive) | 20.6 µM (inactive) | – | 16.6 µM (inactive) | – | 29.1 µM (inactive) | 19.7 µM (inactive) | 30.8 µM (inactive) | 35.3 µM (inactive) | 24.9 µM (inactive)
CC(C)[C@@H](C(=O)N1CCC[C@H]1C(=O)OCc1ccccc1)N(C)C(=O)[C@H](C(C)C)N(C)C(=O)[C@H](Cc1ccccc1)N(C)C(=O)[C@H](NC(=O)OC(C)(C)C)C(C)C (Boc-[dV][NMeF][NMeV][NMeV]P-OBn) | > 50 µM (inactive) | > 50 µM (inactive) | > 50 µM (inactive) | > 50 µM (inactive) | > 50 µM (inactive) | > 50 µM (inactive) | > 50 µM (inactive) | – | > 50 µM (inactive) | > 50 µM (inactive) | > 50 µM (inactive) | > 50 µM (inactive) | > 50 µM (inactive) | > 50 µM (inactive) | > 50 µM (inactive) | > 50 µM (inactive) | 18.6 µM (inactive) | > 50 µM (inactive) | > 50 µM (inactive) | > 50 µM (inactive)
